This note sets out measurements from PMC6928678, “Simplified Head-to-Tail Cyclic Polypeptides as Biomaterial-Associated Antimicrobials with Endotoxin Neutralizing and Anti-Inflammatory Capabilities” (International Journal of Molecular Sciences, 2019).

Where a SMILES comes first, the peptide text is derived from it.

The test system of the assay is E. coli UB1005. Kind of assay: Outer membrane permeability assay (NPN uptake). Format: cell-based. Particulars: E. coli UB1005, concentrations greater than 4 μM; relative to 10 μg/mL polymyxin B. The method, then: Figure 4 Outer membrane permeabilization assays of the engineered peptides. A 2 mL volume of E. coli UB1005 cells, diluted to 10^5 CFU/mL in 5 mM sodium HEPES buffer, was added to a quartz cuvette containing NPN to give a final concentration of 10 μM. Aliquots of peptides were added to the cuvette, and the fluorescence was recorded until there was no further increase in fluorescence. Data shown are three independent experiments.
The effect of antimicrobial peptides on the outer leaflet of the cell membrane was examined using the extracellular membrane-sensitive fluorescent dye NPN and the antibiotic-sensitive mutant E. coli UB 1005. […] The background fluorescence was measured (excitation λ = 350 nm, emission λ = 420 nm) with an F-4500 fluorescence spectrophotometer (Hitachi, Tokyo, Japan). […] The fluorescence was recorded in terms of the time needed until there was no further increase in fluorescence after mixing several concentrations (0.5–64 μM) of peptides. […] Values were converted to percent NPN uptake using the following equation:(3) %NPN uptake=Fobs−F0/F100−F0× 100% where Fobs is the observed fluorescence at a given peptide concentration, F0 is the initial fluorescence of NPN in E. coli UB1005 cells and F100 is the fluorescence of NPN in UB1005 cells upon the addition of 10 μg/mL polymyxin B, which had strong outer membrane permeability.

`CC[C@H](C)[C@@H]1NC(=O)[C@H](CCCNC(=N)N)NC(=O)[C@H]([C@@H](C)CC)NC(=O)[C@@H]2CCCN2C(=O)[C@H](CCCNC(=N)N)NC(=O)[C@H]([C@@H](C)CC)NC(=O)[C@H](CCCNC(=N)N)NC(=O)[C@H]([C@@H](C)CC)NC(=O)[C@H](CCCNC(=N)N)NC(=O)[C@H]([C@@H](C)CC)NC(=O)[C@@H]2CCCN2C(=O)[C@H](CCCNC(=N)N)NC(=O)[C@H]([C@@H](C)CC)NC(=O)[C@H](CCCNC(=N)N)NC1=O` [OIR3] (cyclo(IRIRIRPIRIRIRP)): the “outer membrane permeability (% NPN uptake)” value is “more than 70%”.
